According to US9084424B2, “N-benzyl heterocyclic carboxamides” (BAYER INTELLECTUAL PROPERTY GMBH, priority 2010, dated 2015):

Tests used:
Alternaria solani = assay: In vivo preventive test on Alternaria solani (tomato); settings: preventive spray, 500 ppm of active ingredient, evaluated 7 days after inoculation
Method: In Vivo Preventive Test on Alternaria Solani (Tomato)
(§1) Solvent: 49 parts by weight of N,N-dimethylformamide
(§2) Emulsifier: 1 part by weight of alkylarylpolyglycolether
(§3) To produce a suitable preparation of active compound, 1 part by weight of active compound is mixed with the stated amounts of solvent and emulsifier, and the concentrate is diluted with water to the desired concentration.
To test for preventive activity, young plants are sprayed with the preparation of active compound at the stated rate of application. One day after this treatment, the plants are inoculated with an aqueous spore suspension of Alternaria solani. The plants remain for one day in an incubation cabinet at approximately 22° C. and a relative atmospheric humidity of 100%. Then the plants are placed in an incubation cabinet at approximately 20° C. and a relative atmospheric humidity of 96%.
The test is evaluated 7 days after the inoculation. 0% means an efficacy which corresponds to that of the untreated control while an efficacy of 100% means that no disease is observed.

[1] = log P by HPLC on reversed-phase column (EEC Directive 79/831 Annex V.A8); type: physicochemical; settings: 0.1% aqueous formic acid and acetonitrile, linear gradient 10% to 90% acetonitrile
Method: In table 1, the log P values were determined in accordance with EEC Directive 79/831 Annex V.A8 by HPLC (High Performance Liquid Chromatography) on a reversed-phase column (C 18), using the method described below: Temperature: 40° C.; Mobile phases: 0.1% aqueous formic acid and acetonitrile; linear gradient from 10% acetonitrile to 90% acetonitrile. Calibration was carried out using unbranched alkan-2-ones (comprising 3 to 16 carbon atoms) with known log P values (determination of the log P values by the retention times using linear interpolation between two successive alkanones). lambda-max-values were determined using UV-spectra from 200 nm to 400 nm and the peak values of the chromatographic signals.

Pyrenophora teres = assay: In vivo preventive test on Pyrenophora teres (barley); settings: preventive spray, 500 ppm of active ingredient, evaluated 7-9 days after inoculation
Method: In Vivo Preventive Test on Pyrenophora teres (Barley)
Solvent: 49 parts by weight of N,N-dimethylacetamid
Emulsifier: 1 part by weight of alkylaryl polyglycol ether
as §3
To test for preventive activity, young plants are sprayed with the preparation of active compound at the stated rate of application. One day after this treatment, the plants are inoculated with an aqueous spore suspension of Pyrenophora teres. The plants remain for 48 hours in an incubation cabinet at 22° C. and a relative atmospheric humidity of 100%. Then the plants are placed in a greenhouse at a temperature of approximately 20° C. and a relative atmospheric humidity of approximately 80%.
The test is evaluated 7-9 days after the inoculation. 0% means an efficacy which corresponds to that of the untreated control while an efficacy of 100% means that no disease is observed.

Sphaerotheca fuliginea = assay: In vivo preventive test on Sphaerotheca fuliginea (cucumber); settings: preventive spray, 500 ppm of active ingredient, evaluated 7 days after inoculation
Method: In Vivo Preventive Test on Sphaerotheca fuliginea (Cucumber)
as §1, §2, §3
To test for preventive activity, young plants are sprayed with the preparation of active compound at the stated rate of application. After the spray coating has dried on, the plants are inoculated with an aqueous spore suspension of Sphaerotheca fuliginea. The plants are then placed in a greenhouse at approximately 23° C. and a relative atmospheric humidity of approximately 70%.
The test is evaluated 7 days after the inoculation. 0% means an efficacy which corresponds to that of the untreated control, while an efficacy of 100% means that no disease is observed.

[2] = HPLC, reversed-phase C 18, 40° C.
[3] = HPLC on reversed-phase column (C 18), 40° C.

| SMILES | logP [1, 2] | logP [1, 3] | Efficacy (Alternaria solani) | Efficacy (Pyrenophora teres) | Efficacy (Sphaerotheca fuliginea) |
| --- | --- | --- | --- | --- | --- |
| CC(NC(=O)c1c(C(F)F)nn(C)c1Cl)c1ccccc1 (racemic) [Example 1] | 2.49 |  | 95% | 95% |  |
| CC(NC(=O)c1c(C(F)F)nn(C)c1F)c1ccccc1 (racemic) [Example 2] | 2.33 |  | 93% | 94% |  |
| CC(c1ccccc1Cl)N(C)C(=O)c1c(C(F)F)nn(C)c1Cl (racemic) [Example 27] | 2.84 |  | 80% | 100% |  |
| CC(c1ccccc1Cl)N(C)C(=O)c1c(C(F)F)nn(C)c1F (racemic) [Example 28] | 2.68 |  |  | 100% | 85% |
| CC(c1ccc(Oc2ccccc2)cc1)N(C)C(=O)c1c(C(F)F)nn(C)c1Cl (racemic) [Example 153] |  | 3.76 | 90% | 80% |  |
| CC(NC(=O)c1c(C(F)F)nn(C)c1Cl)c1ccc(-c2ccccc2)cc1 (racemic) [Example 167] |  | 3.62 | 95% | 90% |  |
| C=CCN(Cc1ccccc1CC)C(=O)c1c(C(F)F)nn(C)c1F [Example 16] | 3.36 |  | 80% | 100% |  |
| Cn1nc(C(F)F)c(C(=O)NC(C)(C)c2ccccc2Cl)c1Cl [Example 22] | 3.15 |  |  |  | 80% |
| CC(NC(=S)c1c(C(F)F)nn(C)c1Cl)c1ccccc1C(F)(F)F (stereo not drawn) [Example 85] | 3.55 |  | 95% | 100% |  |
| Cn1nc(C(F)F)c(C(=O)N(CC#N)Cc2c(Cl)cccc2C(F)(F)F)c1F [Example 88] | 2.68 |  | 80% |  |  |
| CN(Cc1c(Cl)cccc1C(F)(F)F)C(=O)c1c(C(F)F)nn(C)c1F [Example 89] | 2.93 |  | 95% | 100% |  |
| CN(Cc1ccccc1Br)C(=O)c1c(C(F)F)nn(C)c1F [Example 105] |  | 2.71 | 95% | 94% |  |
| Cn1nc(C(F)F)c(C(=O)NC2(c3ccc(C(F)(F)F)cc3)CCCC2)c1F [Example 121] |  | 3.72 | 70% | 94% |  |
| Cn1nc(C(F)F)c(C(=O)NC2CCc3ccccc32)c1Cl (stereo not drawn) [Example 137] |  | 2.73 | 89% |  |  |
| Cn1nc(C(F)F)c(C(=O)NC2CCc3ccccc32)c1F (stereo not drawn) [Example 138] |  | 2.57 | 94% |  |  |
| Cn1nc(C(F)F)c(C(=O)NCc2cccc(Oc3ccccc3)c2)c1F [Example 145] |  | 3.23 | 90% |  |  |
| Cn1nc(C(F)F)c(C(=O)N(Cc2cccc(Oc3ccccc3)c2)C2COC2)c1Cl [Example 147] |  | 3.19 | 70% |  |  |
| Cn1nc(C(F)F)c(C(=O)N(Cc2cccc(Oc3ccccc3)c2)C2COC2)c1F [Example 148] |  | 3.06 | 80% | 95% |  |
| CN(Cc1cccc(Oc2ccccc2)c1)C(=O)c1c(C(F)F)nn(C)c1Cl [Example 149] |  | 3.46 |  | 70% |  |
| CN(Cc1cccc(Oc2ccccc2)c1)C(=O)c1c(C(F)F)nn(C)c1F [Example 150] |  | 3.31 | 70% | 100% |  |
| Cn1nc(C(F)F)c(C(=O)NCc2ccc(Oc3ccccc3)cc2)c1F [Example 152] |  | 3.23 | 89% | 95% |  |
| CN(Cc1ccc(Oc2ccccc2)cc1)C(=O)c1c(C(F)F)nn(C)c1F [Example 156] |  | 3.33 | 89% | 90% |  |
| CN(Cc1ccc(Oc2ccc(Cl)cc2)cc1)C(=O)c1c(C(F)F)nn(C)c1Cl [Example 157] |  | 3.96 |  | 90% |  |
| CN(Cc1ccc(Oc2ccc(Cl)cc2)cc1)C(=O)c1c(C(F)F)nn(C)c1F [Example 158] |  | 3.81 | 95% | 100% |  |
| Cn1nc(C(F)F)c(C(=O)NCc2ccc(OCc3ccccc3)cc2)c1F [Example 161] |  | 3.23 | 94% | 90% |  |
| Cn1nc(C(F)F)c(C(=O)NCc2ccc(-c3ccccc3)cc2)c1F [Example 170] |  | 3.21 | 94% | 95% |  |
| CON(Cc1ncc(Cl)cc1Cl)C(=O)c1c(C(F)F)nn(C)c1Cl [Example 182] |  | 2.88 |  | 95% |  |
| CC(c1ncc(Cl)cc1Cl)N(C(=O)c1c(C(F)F)nn(C)c1Cl)C1CCCC1 (stereo not drawn) [Example 188] |  | 4.67 |  | 95% |  |

More lines, main results first:

| logP [1, 2] | logP [1, 3] | SMILES | Efficacy (Alternaria solani) | Efficacy (Pyrenophora teres) | Efficacy (Sphaerotheca fuliginea) |
| --- | --- | --- | --- | --- | --- |
| 3.21 |  | Cn1nc(C(F)F)c(C(=O)NC(c2ccccc2Cl)C(F)(F)F)c1F (racemic) [Example 23] | 89% |  |  |
| 3.89 |  | Cn1nc(C(F)F)c(C(=O)NC(c2ccc(Cl)cc2Cl)C(F)(F)F)c1Cl (stereo not drawn) [Example 32] |  |  | 95% |
| 3.89 |  | Cn1nc(C(F)F)c(C(=O)NC(C)(C)c2ccc(Cl)cc2Cl)c1Cl [Example 35] |  |  | 86% |
| 4.19 |  | Cn1nc(C(F)F)c(C(=O)NCc2ccc(Cl)cc2Cl)c1F [Example 37] | 94% |  |  |
| 3.89 |  | Cn1nc(C(F)F)c(C(=O)NC2(c3ccc(Cl)cc3Cl)CC2)c1Cl [Example 41] | 80% |  |  |
| 3.81 |  | CON(C(=O)c1c(C(F)F)nn(C)c1Cl)C(C)c1ccc(Cl)cc1Cl (stereo not drawn) [Example 46] | 100% | 100% |  |
| 3.89 |  | Cn1nc(C(F)F)c(C(=O)NC(C)(C)c2cc(Cl)ccc2Cl)c1Cl [Example 49] |  |  | 94% |
| 4.19 |  | Cn1nc(C(F)F)c(C(=O)NC2(c3cc(Cl)ccc3Cl)CC2)c1F [Example 51] | 94% | 80% |  |
| 3.89 |  | Cn1nc(C(F)F)c(C(=O)NC(C)(C)c2cc(Cl)ccc2Cl)c1F [Example 52] |  |  | 80% |
| 4.19 |  | Cn1nc(C(F)F)c(C(=O)NCc2cc(Cl)ccc2Cl)c1F [Example 54] | 89% |  |  |
| 2.76 |  | Cn1nc(C(F)F)c(C(=O)NCc2ccccc2C(F)(F)F)c1F [Example 81] | 90% |  |  |
| 2.96 |  | Cn1nc(C(F)F)c(C(=O)NCc2ccccc2C(F)(F)F)c1Cl [Example 83] | 90% |  |  |
|  | 3.11 | Cn1nc(C(F)F)c(C(=O)NCc2ccccc2SC(F)(F)F)c1F [Example 107] | 80% | 100% |  |
|  | 3.25 | Cn1nc(C(F)F)c(C(=O)NCc2ccc3c(c2)CCCC3)c1F [Example 110] | 94% | 80% |  |
|  | 3.23 | Cn1nc(C(F)F)c(C(=O)NCc2cc(Cl)cc(Cl)c2)c1Cl [Example 113] | 90% | 80% |  |
|  | 3.09 | Cn1nc(C(F)F)c(C(=O)NCc2cc(Cl)cc(Cl)c2)c1F [Example 115] | 94% | 90% |  |
|  | 2.55 | Cn1nc(C(F)F)c(C(=O)NCc2ccc(Cl)cc2)c1F [Example 127] | 90% |  |  |
|  | 3.25 | Cn1nc(C(F)F)c(C(=O)NCc2ccccc2Oc2ccccc2)c1F [Example 144] | 89% |  |  |
|  | 3.19 | Cn1nc(C(F)F)c(C(=O)NCc2cccc(-c3ccccc3)c2)c1F [Example 166] | 78% | 80% |  |
|  | 1.84 | CN(Cc1cc(Cl)ccn1)C(=O)c1c(C(F)F)nn(C)c1F [Example 174] |  | 75% |  |
|  | 2.76 | Cn1nc(C(F)F)c(C(=O)NCc2ncc(C(F)(F)F)cc2Cl)c1F [Example 176] | 70% |  |  |
